Laboratory results reported in patent EP4800015A1, “AZABICYCLO DERIVATIVE AND PREPARATION METHOD THEREFOR, AND USE” (Zhejiang Hisun Pharmaceutical Co., Ltd., priority 2023, dated 2025).

molecular target: T1, recombinant human WRN (Homo sapiens, UniProt Q14191); assay: Inhibition of WRN enzyme activity (ATPase), ADP-Glo Kinase Assay; assay type: biochemical; conditions: WRN protein 5 nM, Flap 0.1 nM, ATP 30 µM; read-out: IC50
T1 construct: purchased BPS 101264
Description: The following method was used to determine the degree of inhibition of recombinant human WRN ATPase activity by the compounds of the present disclosure in vitro. In this method, ADP-Glo™ Kinase Assay kit (catalog No. V9102) from Promega was used. Detailed experimental procedures can be found in the kit manual.
The experimental procedure was briefly described as follows: test compounds were first dissolved in DMSO to prepare stock solutions, followed by serial dilution using reaction buffer (30 mM Tris, pH 7.5, 2 mM MgCl2, 50 mM NaCl, 0.02% BSA, 0.1% Pluronic F127), with final concentrations of test compounds in the reaction system ranging from 1000 nM to 0.004 nM; WRN protein (purchased from BPS, catalog No. 101264), substrate 5-flap oligonucleotide (Flap26) (synthesized by Shanghai Generay Biotech Co., Ltd., sequence 5'-[…]-3'), and ATP working solution (from ADP-Glo™ Kinase Assay kit component V915A) were prepared using reaction buffer. Reactions were performed in 384-well microplates. At first the compounds and recombinant human WRN protein (final concentration 5 nM) were added to the wells and the plate was incubated at room temperature for 15 minutes, then Flap solution (final concentration 0.1 nM) and ATP solution (final concentration 30 µM) were added to the reaction solution and the plate was incubated at room temperature for 10 minutes. Subsequently, 5 µL of ADP-Glo Reagent was added to the reaction system and incubated at room temperature for 40 minutes. Then 10 µL of Kinase Detection Reagent was added to the reaction system and incubated at room temperature for 30 minutes. After the incubation was completed, chemiluminescence intensity values of each well were measured using a microplate reader in luminescence mode. The percentage inhibition of the compounds at each concentration was calculated by comparison with the luminescence intensity values of the control group (0.1% DMSO), and IC50 values of compounds were obtained by nonlinear regression analysis of compound concentration logarithm-inhibition rate using GraphPad Prism 9 software, as shown in Table 1.
The IC50 value results of the compounds of the present disclosure are expressed as AA and A, respectively as follows: "AA" indicates IC50 ≤ 1 nM; "A" indicates 1 nM < IC50 ≤ 100 nM. Table 1 IC50 of the compounds of the present disclosure for inhibiting WRN enzyme activity (ATPase)

T1 sequence (Q14191 whole entry): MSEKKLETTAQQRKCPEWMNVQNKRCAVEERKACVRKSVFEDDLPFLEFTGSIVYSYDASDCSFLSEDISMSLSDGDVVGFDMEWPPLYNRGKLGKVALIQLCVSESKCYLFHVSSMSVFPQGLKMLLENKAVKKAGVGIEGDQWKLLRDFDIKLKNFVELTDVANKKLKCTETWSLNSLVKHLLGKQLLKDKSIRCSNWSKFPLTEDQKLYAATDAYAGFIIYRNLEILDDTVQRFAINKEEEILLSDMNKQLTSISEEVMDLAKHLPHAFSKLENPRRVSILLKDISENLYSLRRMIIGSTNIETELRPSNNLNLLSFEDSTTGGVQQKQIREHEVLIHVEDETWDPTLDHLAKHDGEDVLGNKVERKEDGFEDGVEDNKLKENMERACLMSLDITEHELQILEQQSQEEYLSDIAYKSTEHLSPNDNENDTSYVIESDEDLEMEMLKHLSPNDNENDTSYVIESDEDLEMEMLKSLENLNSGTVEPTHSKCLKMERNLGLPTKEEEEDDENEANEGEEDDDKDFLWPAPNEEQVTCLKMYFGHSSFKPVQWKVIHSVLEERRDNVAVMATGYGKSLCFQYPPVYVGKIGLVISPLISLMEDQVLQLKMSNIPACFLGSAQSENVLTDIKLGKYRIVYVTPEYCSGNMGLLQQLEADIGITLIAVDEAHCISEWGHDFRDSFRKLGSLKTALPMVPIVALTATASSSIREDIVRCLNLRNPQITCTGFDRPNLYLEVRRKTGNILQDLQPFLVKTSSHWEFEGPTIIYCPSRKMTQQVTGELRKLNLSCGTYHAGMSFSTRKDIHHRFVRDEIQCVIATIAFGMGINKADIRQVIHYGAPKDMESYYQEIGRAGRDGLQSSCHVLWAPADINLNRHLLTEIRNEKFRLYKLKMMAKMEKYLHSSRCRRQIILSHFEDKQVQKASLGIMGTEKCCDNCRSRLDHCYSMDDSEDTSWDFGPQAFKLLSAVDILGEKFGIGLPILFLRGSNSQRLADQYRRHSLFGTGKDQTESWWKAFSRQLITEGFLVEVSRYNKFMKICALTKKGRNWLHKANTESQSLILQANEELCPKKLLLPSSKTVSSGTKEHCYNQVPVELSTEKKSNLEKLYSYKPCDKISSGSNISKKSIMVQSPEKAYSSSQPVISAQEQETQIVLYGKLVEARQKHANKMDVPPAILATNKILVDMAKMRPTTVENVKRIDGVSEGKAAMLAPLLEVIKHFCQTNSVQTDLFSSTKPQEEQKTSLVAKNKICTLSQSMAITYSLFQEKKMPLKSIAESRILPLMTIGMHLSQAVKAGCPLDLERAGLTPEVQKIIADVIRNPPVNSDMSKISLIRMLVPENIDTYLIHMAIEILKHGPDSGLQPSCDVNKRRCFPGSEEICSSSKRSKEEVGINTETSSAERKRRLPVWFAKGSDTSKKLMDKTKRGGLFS

| SMILES | IC50 |
| --- | --- |
| CCc1c(N2CCN(C(=O)c3ncnc(C)c3O)CC2)c(=O)n2nc(N3CCCOCC3)nc2n1CC(=O)Nc1ccc(C(F)(F)F)cc1Cl [Example 1, N-(2-chloro-4-(trifluoromethyl)phenyl)-2-(5-ethyl-6-(4-(5-hydroxy-6-methylpyrimidine-4-carbonyl)piperazin-1-yl)-2-(1,4-oxazepan-4-yl)-7-oxo-[1,2,4]triazolo[1,5-a]pyrimidin-4(7H)-yl)acetamide] | 1 to 100 nM |
| CCc1c(N2CCN(C(=O)c3ncnc(C)c3O)CC2)c(=O)n2nc(C3CCCC3)nc2n1CC(=O)Nc1ccc(C(F)(F)F)cc1Cl [Example 2, N-(2-Chloro-4-(trifluoromethyl)phenyl)-2-(2-cyclopentyl-5-ethyl-6-(4-(5-hydroxy-6-methylpyrimidine-4-carbonyl)piperazin-1-yl)-7-oxo-[1,2,4]triazolo[1,5-a]pyrimidin-4(7H)-yl)acetamide] | 1 to 100 nM |
| CCc1c(N2CCN(C(=O)c3ncnc(C)c3O)CC2)c(=O)n2nc(N3CCCCCC3)nc2n1CC(=O)Nc1ccc(C(F)(F)F)cc1Cl [Example 3, 2-(2-(Azepan-1-yl)-5-ethyl-6-(4-(5-hydroxy-6-methylpyrimidine-4-carbonyl)piperazin-1-yl)-7-oxo-[1,2,4]triazolo[1,5-a]pyrimidin-4(7H)-yl)-N-(2-chloro-4-(trifluoromethyl)phenyl)acetamide] | 1 to 100 nM |
| CCc1c(N2CCN(C(=O)c3ncnc(C)c3O)CC2)c(=O)n2nc(C(C)C)nc2n1CC(=O)Nc1ccc(C(F)(F)F)cc1Cl [Example 5, N-(2-chloro-4-(trifluoromethyl)phenyl)-2-(5-ethyl-6-(4-(5-hydroxy-6-methylpyrimidine-4-carbonyl)piperazin-1-yl)-2-isopropyl-7-oxo-[1,2,4]triazolo[1,5-a]pyrimidin-4(7H)-yl)acetamide] | 1 to 100 nM |
| CCc1c(N2CCN(C(=O)c3ncnc(C)c3O)CC2)c(=O)n2nc(N3CCC3)nc2n1CC(=O)Nc1ccc(C(F)(F)F)cc1Cl [Example 7, 2-(2-(azetidin-1-yl)-5-ethyl-6-(4-(5-hydroxy-6-methylpyrimidine-4-carbonyl)piperazin-1-yl)-7-oxo-[1,2,4]triazolo[1,5-a]pyrimidin-4(7H)-yl)-N-(2-chloro-4-(trifluoromethyl)phenyl)acetamide] | 1 to 100 nM |
| CCc1c(N2CCN(C(=O)c3ncnc(C)c3O)CC2)c(=O)n2nc(N3CC4(CCOCC4)C3)nc2n1CC(=O)Nc1ccc(C(F)(F)F)cc1Cl [Example 8, N-(2-chloro-4-(trifluoromethyl)phenyl)-2-(5-ethyl-6-(4-(5-hydroxy-6-methylpyrimidine-4-carbonyl)piperazin-1-yl)-7-oxo-2-(7-oxa-2-azaspiro[3.5]nonan-2-yl)-[1,2,4]triazolo[1,5-a]pyrimidin-4(7 H)-yl)acetamide] | 1 to 100 nM |
| CCc1c(N2CCN(C(=O)c3ncnc(C)c3O)CC2)c(=O)n2nc(N3CCC4(CCNC4=O)CC3)nc2n1CC(=O)Nc1ccc(C(F)(F)F)cc1Cl [Example 13, N-(2-chloro-4-(trifluoromethyl)phenyl)-2-(5-ethyl-6-(4-(5-hydroxy-6-methylpyrimidine-4-carbonyl)piperazin-1-yl)-7-oxo-2-(1-oxo-2,8-diazaspiro[4.5]decan-8-yl)-[1,2,4]triazolo[1,5-a]pyrimidin-4(7H)-yl)acetamide] | 1 to 100 nM |
| CCc1c(N2CCN(C(=O)c3ncnc(C)c3O)CC2)c(=O)n2nc(NCCCCl)nc2n1CC(=O)Nc1ccc(C(F)(F)F)cc1Cl [Example 15, N-(2-chloro-4-(trifluoromethyl)phenyl)-2-(2-((3-chloropropyl)amino)-5-ethyl-6-(4-(5-hydroxy-6-methylpyrimidine-4-carbonyl)piperazin-1-yl)-7-oxo-[1,2,4]triazolo[1,5-a]pyrimidin-4(7H)-yl)ace tamide] | 1 to 100 nM |
| CCc1c(N2CCN(C(=O)c3ncnc(C)c3O)CC2)c(=O)n2nc(N3CC4(COC4)C3)nc2n1CC(=O)Nc1ccc(C(F)(F)F)cc1Cl [Example 16, N-(2-chloro-4-(trifluoromethyl)phenyl)-2-(5-ethyl-6-(4-(5-hydroxy-6-methylpyrimidine-4-carbonyl)piperazin-1-yl)-7-oxo-2-(2-oxa-6-azaspiro[3.3]heptan-6-yl)-[1,2,4]triazolo[1,5-a]pyrimidin-4(7H)-yl)acetamide] | 1 to 100 nM |
| CCc1c(N2CCN(C(=O)c3ncnc(C)c3O)CC2)c(=O)n2nc(C=C3CCOCC3)nc2n1CC(=O)Nc1ccc(C(F)(F)F)cc1Cl [Example 21, N-(2-chloro-4-(trifluoromethyl)phenyl)-2-(5-ethyl-6-(4-(5-hydroxy-6-methylpyrimidine-4-carbonyl)piperazin-1-yl)-7-oxo-2-((tetrahydro-4H-pyran-4-ylidene)methyl)-[1,2,4]triazolo[1,5-a]pyrimidin-4(7H)-yl)acetamide] | 1 to 100 nM |
| CCc1c(N2CCN(C(=O)c3ncnc(C)c3O)CC2)c(=O)n2nc(C3=CC4CCC3C4)nc2n1CC(=O)Nc1ccc(C(F)(F)F)cc1Cl (stereo not drawn) [Example 23, 2-(2-(bicyclo[2.2.1]hept-2-en-2-yl)-5-ethyl-6-(4-(5-hydroxy-6-methylpyrimidine-4-carbonyl)piperazin-1-yl)-7-oxo-[1,2,4]triazolo[1,5-a]pyrimidin-4(7H)-yl)-N-(2-chloro-4-(trifluoromethyl)phenyl)acetamide] | 1 to 100 nM |

Continued, values first:

| IC50 | SMILES |
| --- | --- |
| 1 to 100 nM | CCc1c(N2CCN(C(=O)c3ncnc(C)c3O)CC2)c(=O)n2nc(C3CCCCCC3)nc2n1CC(=O)Nc1ccc(C(F)(F)F)cc1Cl [Example 4, N-(2-chloro-4-(trifluoromethyl)phenyl)-2-(2-cycloheptyl-5-ethyl-6-(4-(5-hydroxy-6-methylpyrimidine-4-carbonyl)piperazin-1-yl)-7-oxo-[1,2,4]triazolo[1,5-a]pyrimidin-4(7H)-yl)acetamide] |
| < 1 nM | CCc1c(N2CCN(C(=O)c3ccncc3O)CC2)c(=O)n2nc(C3=CCCCCC3)nc2n1CC(=O)Nc1ccc(C(F)(F)F)cc1Cl [Example 9, N-(2-chloro-4-(trifluoromethyl)phenyl)-2-(2-(cyclohept-1-en-1-yl)-5-ethyl-6-(4-(3-hydroxyisonic otinoyl)piperazin-1-yl)-7-oxo-[1,2,4]triazolo[1,5-a]pyrimidin-4(7H)-yl)acetamide] |
| 1 to 100 nM | CCc1c(N2CCN(C(=O)c3ccccc3O)CC2)c(=O)n2nc(C3=CCCCCC3)nc2n1CC(=O)Nc1ccc(C(F)(F)F)cc1Cl [Example 10, N-(2-chloro-4-(trifluoromethyl)phenyl)-2-(2-(cyclohept-1-en-1-yl)-5-ethyl-6-(4-(2-hydroxybenzoyl)piperazin-1-yl)-7-oxo-[1,2,4]triazolo[1,5-a]pyrimidin-4(7H)-yl)acetamide] |
| 1 to 100 nM | CCc1c(N2CCN(C(=O)c3cccc(C)c3O)CC2)c(=O)n2nc(C3=CCCCCC3)nc2n1CC(=O)Nc1ccc(C(F)(F)F)cc1Cl [Example 11, N-(2-Chloro-4-(trifluoromethyl)phenyl)-2-(2-(cyclohept-1-en-1-yl)-5-ethyl-6-(4-(2-hydroxy-3-methylbenzoyl)piperazin-1-yl)-7-oxo-[1,2,4]triazolo[1,5-a]pyrimidin-4(7H)-yl)acetamide] |
| 1 to 100 nM | CCc1c(N2CCN(C(=O)c3ncnc(C)c3O)CC2)c(=O)n2nc(C3CCCCC3)nc2n1CC(=O)Nc1ccc(C(F)(F)F)cc1Cl [Example 12, N-(2-Chloro-4-(trifluoromethyl)phenyl)-2-(2-cyclohexyl-5-ethyl-6-(4-(5-hydroxy-6-methylpyrimidine-4-carbonyl)piperazin-1-yl)-7-oxo-[1,2,4]triazolo[1,5-a]pyrimidin-4(7H)-yl)acetamide] |
| 1 to 100 nM | CCc1c(N2CCN(C(=O)c3ccncc3O)CC2)c(=O)n2nc(C3=CC4CC(=O)CC4C3)nc2n1CC(=O)Nc1ccc(C(F)(F)F)cc1Cl (stereo not drawn) [Example 14, N-(2-chloro-4-(trifluoromethyl)phenyl)-2-(5-ethyl-6-(4-(3-hydroxyisonicotinoyl)piperazin-1-yl)-7-oxo-2-(5-oxo-1,3a,4,5,6,6a-hexahydropentalen-2-yl)-[1,2,4]triazolo[1,5-a]pyrimidin-4(7H)-yl)a cetamide] |
| 1 to 100 nM | CCc1c(N2CCN(C(=O)c3ncnc(C)c3O)CC2)c(=O)n2nc(C=C3CCCCC3)nc2n1CC(=O)Nc1ccc(C(F)(F)F)cc1Cl [Example 20, N-(2-chloro-4-(trifluoromethyl)phenyl)-2-(2-(cyclohexylidenemethyl)-5-ethyl-6-(4-(5-hydroxy-6-methylpyrimidine-4-carbonyl)piperazin-1-yl)-7-oxo-[1,2,4]triazolo[1,5-a]pyrimidin-4(7H)-yl)ac etamide] |
